Molecules are shown by their SMILES. Where only a bound is given, the exact number is not on record here.

We go through 27 molecules from patent publication US20240083861A1, “HSD17B13 INHIBITORS AND USES THEREOF” (FL2022-001, Inc., priority 2020, published 2024).

In this assay the target is T1, Recombinant human HSD17B13 enzyme (Homo sapiens, UniProt Q7Z5P4).
T1 sequence (Q7Z5P4 20-300): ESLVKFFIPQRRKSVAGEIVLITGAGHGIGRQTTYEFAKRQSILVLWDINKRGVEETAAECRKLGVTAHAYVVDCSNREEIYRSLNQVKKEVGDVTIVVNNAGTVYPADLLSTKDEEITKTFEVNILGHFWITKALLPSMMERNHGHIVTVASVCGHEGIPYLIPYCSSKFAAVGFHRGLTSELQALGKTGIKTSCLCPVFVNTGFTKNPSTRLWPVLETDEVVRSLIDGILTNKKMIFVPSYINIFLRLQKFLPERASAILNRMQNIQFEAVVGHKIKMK
Kind of assay: HSD17b13 NAD(P)H-Glo biochemical assay. The note with it: 50 uM estradiol, 1 mM NAD+, NAD(P)H-Glo luminescence; read-out: HSD17β13 IC50. In short, it runs like this:
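Luminescent NAD(P)H-Glo read-out, taken after 1 hour at RT, measured cofactor reduction. Substrate and cofactor were estradiol at 50 uM and NAD+ at 1 mM final, reacted with the recombinant human enzyme for 3 hours at 37° C in 20 mM Tris pH7.4, 0.002% Tween-20, 0.02% BSA. Compound was pre-incubated with enzyme for 20 minutes at RT.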

What is called IC50 is the concentration needed to halve the response being measured. On to `Cn1nc(-c2cc(C(F)(F)F)c(F)c(O)c2F)c2cnc(N3CCOC(CC(=O)O)C3)nc21` (stereo not drawn) [Compound 18.57, 2-(4-(3-(2,4-Difluoro-3-hydroxy-5-(trifluoromethyl)phenyl)-1-methyl-1H-pyrazolo[3,4-d]pyrimidin-6-yl)morpholin-2-yl)acetic Acid], for which the half-maximal inhibitory concentration (IC50) lay in the range of 1000 to 30000 nM.
The result for `Cn1cc(C2CN(c3ncc4c(-c5cc(C(F)(F)F)c(F)c(O)c5F)nn(C)c4n3)CCO2)cn1` (stereo not drawn) [Compound 18.58, 2,6-Difluoro-3-(1-methyl-6-(2-(1-methyl-1H-pyrazol-4-yl)morpholino)-1H-pyrazolo[3,4-d]pyrimidin-3-y1)-5-(trifluoromethyl)phenol] reads under 100 nM; that for `Cn1nc(-c2cc(C(F)(F)F)c(F)c(O)c2F)c2cnc(N3CCOC(C4CC4)C3)nc21` (stereo not drawn) [Compound 18.59, 3-(6-(2-Cyclopropylmorpholino)-1-methyl-1H-pyrazolo[3,4-d]pyrimidin-3-y1)-2,6-difluoro-5-(trifluoromethyl)phenol], under 100 nM; that for `Cn1nc(-c2cc(C(F)(F)F)c(F)c(O)c2F)c2cnc(N3CCC(N4CCOCC4)CC3)nc21` [Compound 18.60, 2,6-Difluoro-3-(1-methyl-6-(4-morpholinopiperidin-1-yl)-1H-pyrazolo[3,4-d]pyrimidin-3-y1)-5-(trifluoromethyl)phenol], 100 to 1000 nM.
Take `COC1(C)CCN(c2ncc3c(-c4cc(C(F)(F)F)c(F)c(O)c4F)nn(C)c3n2)CC1` [Compound 18.61, 2,6-Difluoro-3-(6-(4-methoxy-4-methylpiperidin-1-yl)-1-methyl-1H-pyrazolo[3,4-d]pyrimidin-3-yl)-5-(trifluoromethyl)phenol]: the 50% inhibitory concentration (IC50) is under 100 nM.
In the case of `Cn1nc(-c2cc(C(F)(F)F)c(F)c(O)c2F)c2cnc(N3CCN(S(C)(=O)=O)C4(CC4)C3)nc21` [Compound 18.62, 2,6-Difluoro-3-(1-methyl-6-(4-(methylsulfony1)-4,7-diazaspiro [2.5]octan-7-y1)-1H-pyrazolo[3,4-d]pyrimidin-3-y1)-5-(trifluoromethyl)phenol], the IC50 is under 100 nM.
Take `Cn1nc(-c2cc(C(F)(F)F)c(F)c(O)c2F)c2cnc(N3CCN(S(C)(=O)=O)C4(CCC4)C3)nc21` [Compound 18.63, 2,6-Difluoro-3-(1-methyl-6-(5-(methylsulfony1)-5,8-diazaspiro[3.5]nonan-8-yl)-1H-pyrazolo[3,4-d]pyrimidin-3-y1)-5-(trifluoromethyl)phenol]: the IC50 is under 100 nM.
The result for `Cn1nc(-c2cc(C(F)(F)F)c(F)c(O)c2F)c2cnc(N3CCN(S(C)(=O)=O)C(C)(C)C3)nc21` [Compound 18.64, 3-(6-(3,3-Dimethyl-4-(methylsulfonyl)piperazin-1-y1)-1-methyl-1H-pyrazolo[3,4-d]pyrimidin-3-y1)-2,6-difluoro-5-(trifluoromethyl)phenol] reads under 100 nM.
As for `Cn1nc(-c2cc(C(F)(F)F)c(F)c(O)c2F)c2cnc(N3CCC(C)(O)CC3)nc21` [Compound 18.65, 1-(3-(2,4-Difluoro-3-hydroxy-5-(trifluoromethyl)phenyl)-1-methyl-1H-pyrazolo[3,4-d]pyrimidin-6-yl)-4-methylpiperidin-4-ol], the IC50 is under 100 nM.
The result for `CCC1(O)CCN(c2ncc3c(-c4cc(C(F)(F)F)c(F)c(O)c4F)nn(C)c3n2)CC1` [Compound 18.66, 1-(3-(2,4-Difluoro-3-hydroxy-5-(trifluoromethyl)phenyl)-1-methyl-1H-pyrazolo[3,4-d]pyrimidin-6-yl)-4-ethylpiperidin-4-ol] reads under 100 nM; that for `CC(C)C1(O)CCN(c2ncc3c(-c4cc(C(F)(F)F)c(F)c(O)c4F)nn(C)c3n2)CC1` [Compound 18.67, 1-(3-(2,4-Difluoro-3-hydroxy-5-(trifluoromethyl)phenyl)-1-methyl-1H-pyrazolo[3,4-d]pyrimidin-6-yl)-4-isopropylpiperidin-4-ol], under 100 nM; that for `CCOC1(C)CCN(c2ncc3c(-c4cc(C(F)(F)F)c(F)c(O)c4F)nn(C)c3n2)CC1` [Compound 18.68, 3-(6-(4-Ethoxy-4-methylpiperidin-1-y1)-1-methyl-1H-pyrazolo[3,4-d]pyrimidin-3-y1)-2,6-difluoro-5-(trifluoromethyl)phenol], under 100 nM.
Regarding `CC(C)OC1CCN(c2ncc3c(-c4cc(C(F)(F)F)c(F)c(O)c4F)nn(C)c3n2)CC1` [Compound 18.69, 2,6-Difluoro-3-(6-(4-isopropoxypiperidin-1-yl)-1-methyl-1H-pyrazolo[3,4-d]pyrimidin-3-y1)-5-(trifluoromethyl)phenol], the half-maximal inhibitory concentration (IC50) is under 100 nM.
The same measure for `CCOC1CCN(c2ncc3c(-c4cc(C(F)(F)F)c(F)c(O)c4F)nn(C)c3n2)CC1` [Compound 18.70, 3-(6-(4-Ethoxypiperidin-1-y1)-1-methyl-1H-pyrazolo[3,4-d]pyrimidin-3-y1)-2,6-difluoro-5-(trifluoromethyl)phenol]: under 100 nM; for `Cn1nc(-c2cc(C(F)(F)F)c(F)c(O)c2F)c2cnc(N3CCCC(c4ccncn4)C3)nc21` (stereo not drawn) [Compound 18.71, 2,6-Difluoro-3-(1-methyl-6-(3-(pyrimidin-4-y1)piperidin-1-yl)-1H-pyrazolo[3,4-d]pyrimidin-3-y1)-5-(trifluoromethyl)phenol]: under 100 nM.
The same measure for `CN1CCN(c2ncc3c(-c4cc(C(F)(F)F)c(F)c(O)c4F)nn(C)c3n2)CC1` [Compound 18.72, 2,6-Difluoro-3-(1-methyl-6-(4-methylpiperazin-1-yl)-1H-pyrazolo[3,4-d]pyrimidin-3-y1)-5-(trifluoromethyl)phenol]: 100 to 1000 nM; for `CC(C)N1CCN(c2ncc3c(-c4cc(C(F)(F)F)c(F)c(O)c4F)nn(C)c3n2)CC1` [Compound 18.73, 2,6-Difluoro-3-(6-(4-isopropylpiperazin-1-yl)-1-methyl-1H-pyrazolo[3,4-d]pyrimidin-3-yl)-5-(trifluoromethyl)phenol]: 100 to 1000 nM.
As to `Cn1nc(-c2cc(C(F)(F)F)c(F)c(O)c2F)c2cnc(N3CC4CC(C3)N4S(C)(=O)=O)nc21` [Compound 18.74, 2,6-Difluoro-3-(1-methyl-6-(6-(methylsulfony1)-3,6-diazabicyclo[3.1.1]heptan-3-yl)-1H-pyrazolo[3,4-d]pyrimidin-3-y1)-5-(trifluoromethyl)phenol], the half-maximal inhibitory concentration (IC50) was 100 to 1000 nM.
Consider `Cn1nc(-c2cc(C(F)(F)F)c(F)c(O)c2F)c2cnc(N3CCNCC3)nc21` [Compound 18.75, 2,6-Difluoro-3-(1-methyl-6-(piperazin-1-y1)-1H-pyrazolo[3,4-d]pyrimidin-3-y1)-5-(trifluoromethyl)phenol], for which the IC50 was 100 to 1000 nM.
On to `Cn1nc(-c2cc(C(F)(F)F)c(F)c(O)c2F)c2cnc(N3CCCC(c4ncccn4)C3)nc21` (stereo not drawn) [Compound 18.76, 2,6-Difluoro-3-(1-methyl-6-(3-(pyrimidin-2-y1)piperidin-1-yl)-1H-pyrazolo[3,4-d]pyrimidin-3-y1)-5-(trifluoromethyl)phenol], for which the 50% inhibitory concentration (IC50) is under 100 nM.
The result for `COC1CCN(c2ncc3c(-c4cc(C(F)(F)F)c(F)c(O)c4F)nn(C)c3n2)CC1` [Compound 18.77, 2,6-Difluoro-3-(6-(4-methoxypiperidin-1-y1)-1-methyl-1H-pyrazolo[3,4-d]pyrimidin-3-yl)-5-(trifluoromethyl)phenol] reads under 100 nM.
On to `Cn1nc(-c2cc(C(F)(F)F)c(F)c(O)c2F)c2cnc(N3CCOC(c4nnc[nH]4)C3)nc21` (stereo not drawn) [Compound 18.78, 3-(6-(2-(4H-1,2,4-Triazol-3-yl)morpholino)-1-methyl-1H-pyrazolo[3,4-d]pyrimidin-3-y1)-2,6-difluoro-5-(trifluoromethyl)phenol], for which the IC50 was in the range of 100 to 1000 nM.
Consider `Cn1nc(-c2cc(C(F)(F)F)c(F)c(O)c2F)c2cnc(N3CCOC(c4ncc[nH]4)C3)nc21` (stereo not drawn) [Compound 18.79, 3-(6-(2-(1H-Imidazol-2-yl)morpholino)-1-methyl-1H-pyrazolo[3,4-d]pyrimidin-3-y1)-2,6-difluoro-5-(trifluoromethyl)phenol], for which the concentration for half-maximal inhibition (IC50) was 100 to 1000 nM.
Turning to `Cn1nc(-c2cc(C(F)(F)F)c(F)c(O)c2F)c2cnc(N3CCOC(c4nccs4)C3)nc21` (stereo not drawn) [Compound 18.80, 2,6-Difluoro-3-(1-methyl-6-(2-(thiazol-2-yl)morpholino)-1H-pyrazolo[3,4-d]pyrimidin-3-y1)-5-(trifluoromethyl)phenol], the IC50 is under 100 nM.
The same measure for `Cn1nc(-c2cc(C(F)(F)F)c(F)c(O)c2F)c2cnc(N3CCOC(c4ncon4)C3)nc21` (stereo not drawn) [Compound 18.81, 3-(6-(2-(1,2,4-Oxadiazol-3-yl)morpholino)-1-methyl-1H-pyrazolo[3,4-d]pyrimidin-3-y1)-2,6-difluoro-5-(trifluoromethyl)phenol]: under 100 nM; for `Cn1nc(-c2cc(C(F)(F)F)c(F)c(O)c2F)c2cnc(N3CCOC(c4cc[nH]n4)C3)nc21` (stereo not drawn) [Compound 18.82, 3-(6-(2-(1H-Pyrazol-3-yl)morpholino)-1-methyl-1H-pyrazolo[3,4-d]pyrimidin-3-y1)-2,6-difluoro-5-(trifluoromethyl)phenol]: under 100 nM.
On to `Cn1nc(-c2cc(C(F)(F)F)c(F)c(O)c2F)c2cnc(N3CCN(S(C)(=O)=O)C4(CCCC4)C3)nc21` [Compound 18.83, 2,6-Difluoro-3-(1-methyl-6-(6-(methylsulfonyl)-6,9-diazaspiro[4.5]decan-9-yl)-1H-pyrazolo[3,4-d]pyrimidin-3-y1)-5-(trifluoromethyl)phenol], for which the IC50 was under 100 nM.
